This note sets out measurements from patent publication US12276670B2, “Methods for identifying and treating adrenomyeloneuropathy (AMN)” (The General Hospital Corporation, priority 2017, dated 2025).

Data set [1] concerns neurons differentiated from ReN cells. Kind of data set: PS exposure by Annexin V-FITC binding. The data set is classed as cell-based, human. Conditions: treatment for 3 days at 10 μM or 20 μM. How it is done: The most significant biochemical change caused by ABCD1 mutations is increased VLCFA levels including free fatty acid and LPC (in particular C24:0 and C26:0) in plasma and tissues. In order to determine whether neurons exposed to high VLCFA levels have PS exposure on their surfaces, neurons differentiated from ReN cells were treated with both C26:0 free fatty acid (FFA C26:0) and LPC C26:0 and then determined the PS exposure by Annexin V-FITC binding. Immortalized hNPC cell line ReNcell VM (ReN) was used to differentiate into neurons according to a published protocol (Kim et al., 2015). Simply, ReN cells were grown in proliferation medium (DMEM/F12 (Gibco/Life Technologies) with 2 μg/ml heparin (stock, STEMCELL Technologies), 2% B27 (Life Technologies), 20 ng/ml EGF, 20 ng/ml bFGF and 1% of 100× penicillin/streptomycin (Gibco/Life Technologies) until confluency. For differentiation, 3×10^4 cells were seeded on matrigel-coated (1:100 dilution in DMEM/F12) 8 well chamber slides and grown in differentiation medium (DMEM/F12 (Gibco/Life Technologies) with 2 μg/ml heparin (stock, STEMCELL Technologies), 2% B27 (Life Technologies) and 1% of 100× penicillin/streptomycin (Gibco/Life Technologies) for 2-3 weeks prior to co-culture with microglia.

In data set [2] the test system is MFGE8. Kind of data set: MFGE8 gene expression in N9 microglia. The data set is classed as cell-based. Conditions: 30 uM, 3 days. How it is done: (§1) In order to learn whether microglial changes seen in vivo were primary or secondary to axon degeneration, microglia was isolated from postnatal mice and molecular changes in unstimulated conditions was assessed as well as after LPS challenge. Microglia cultures were prepared as previously described (Tamashiro et al., 2012). Briefly, mixed glial cultures (˜95% astrocytes, ˜5% microglia) were prepared from the brain tissue of 1-3 day old mice. The tissue was trypsinized with 0.05% trypsin, and the cells were resuspended in glia complete medium DMEM (Lonza) supplemented with 10% fetal bovine serum (FBS), 100 IU/ml penicillin, 100 μg/ml streptomycin and 2 mM L-Glutamine. After 10-14 days in culture, microglia were isolated from the mixed glial cultures by the shake-off procedure. Specifically, loosely attached microglia were obtained from an incubator shaker at 250 rpm for 2 h at 37° C., the cell-containing medium was centrifuged at 1100 rpm for 3 minutes to collect microglia for subsequent culture. N9 microglia cells were cultured in RPMI 1640 medium supplemented with 10% FBS.
After observing an unexpected increase of phagocytosis-related biomarkers at the tissue level, whether gene expression of these markers would be altered in vitro was examined. Total RNA from cells or tissues were isolated using Qiagen RNeasy Mini Kit (Qiagen). First-strand cDNA synthesis used 100 ng random primer (Life Technologies), […], 10 mM dNTP, and 200 units of reverse transcriptase (Life Technologies) per 20 μL reactions. PCRs were performed in duplicates in a 25 μl final volume by using SYBR Green master mix from Applied Biosystems (Life Technologies). The data was analyzed by calculating the delta Ct value between the tested gene and an internal control.
In order to examine whether VLCFA has any effect on MFGE8 expression, microglial cell lines (N9) were treated with 30 uM FFA C26:0, LPC C16:0 and LPC C26:0 separately for 3 days.

The subject of data set [3] is neurons differentiated from ReN cells. Kind of data set: Cleaved-caspase and Tuj 1 staining after VLCFA treatment. It is filed as cell-based, human. To be noted: for cleaved-caspase staining (late apoptosis): differentiated ReN neurons after FFA C26:0 or LPC C26:0 treatment.
Data set [4] deals with MFGE8. Briefly: MFGE8 protein secretion in primary isolated microglia (ELISA). The data set is classed as cell-based, mouse. Conditions: primary microglia from WT and Abcd1−/− mice, 15 uM. How it is done: as §1
An ELISA assay detected 2-fold higher MFGE8 protein secretion into media by Abcd1−/− microglia (FIG. 4D, P<0.05; MFGE8 and TNFa level in culture medium and spinal cord homogenate were measured using MFGE8 and TNFa ELISA kit (R&D) according to manufacturer's instructions). […]
(In general: In an ELISA, binding on a coated surface is turned into a signal by an enzyme label.)

Data set [5] deals with differentiated ReN cells in the co-culture system with primary Abcd1−/− microglia. Briefly: Co-culture of differentiated neurons with primary Abcd1−/− microglia. It is filed as cell-based. How it is done:
As a bridging protein, MFGE8 tightly binds to exposed phosphatidylserine on surface membranes of stressed neurons and opsonizes them for phagocytosis. Indeed, in co-culture, Abcd1−/− microglia increased phagocytosis of phosphatidylserine-exposing neurons in both unstimulated and LPS-challenged conditions (FIG. 4E). For the co-culture of microglia and neurons, isolated microglia were seeded on top of differentiated neurons and co-cultured for 4 days with or without supplementation of VLCFA. For VLCFA supplementation, hexacosanoic acid (FFA C26:0) and Lysophosphatidylcholine (LPC) C16:0 and C26:0 (Avanti polar lipid) were solubilized in 50 mg/ml Methyl-β-cyclodextrin to make 3 mM stock solution and then supplemented into culture medium to reach designated concentration with Methyl-β-cyclodextrin as vehicle control. […] Tuj-1 immunofluoresece and degenerated axons were quantified in each group.
The most significant biochemical change caused by ABCD1 mutations is increased VLCFA levels including free fatty acid and LPC (in particular C24:0 and C26:0) in plasma and tissues. In order to determine whether neurons exposed to high VLCFA levels have PS exposure on their surfaces, neurons differentiated from ReN cells were treated with both C26:0 free fatty acid (FFA C26:0) and LPC C26:0 and then determined the PS exposure by Annexin V-FITC binding. […]

Data set [6] concerns MFGE8. Kind of data set: MFGE8 gene expression in primary isolated microglia. The data set is classed as cell-based, mouse. Conditions: primary microglia from WT and Abcd1−/− mice, 15 uM. How it is done: as §1
After observing an unexpected increase of phagocytosis-related biomarkers at the tissue level, whether gene expression of these markers would be altered in vitro was examined. […] The data was analyzed by calculating the delta Ct value between the tested gene and an internal control. […]

The subject of data set [7] is primary microglia from Abcd1−/− mice. Kind of data set: Microglial phagocytosis assay (PS exposing SH-SY5Y neurons seeded on microglia). Conditions: primary Abcd1−/− microglia pretreated 12 hours; MFGE8 at 50 ng/ml; 4 hours co-culture. It is filed as cell-based, mouse. How it is done:
To validate the impact of MFGE8, primary microglia from Abcd1−/− mice were pretreated with either MFGE8 (50 ng/ml) or MFGE8 antibody for 12 hours and then phagocytosis was assessed by performing a microglial phagocytosis assay. Microglia were seeded in 8-well chamber (7×10^4/well in complete medium) and cultured for 24 hours. SH-SY5Y cells were treated with 100 uM H2O2 for 12 hours to induce phosphatidylserine (PS) exposure on cell surface. Floating SH-Sy5Y cells were then collected by centrifuge at 1000 g for 3 minutes, resuspended in serum free medium and stained with 3 μM CMTPX (red)(Life Science Technologies)(1:1000 dilution) for 30 minutes. A portion of the floating cells was subjected to Annexin V-FITC staining to confirm the exposure of phosphatidylserine. The remnant was washed twice and seeded (same amount as microglia) on top of the microglial layer. After 4 hours co-culture, cells were washed with PBS and fixed with 4% paraformaldehyde (PFA) for 15 min at room temperature. Microglia were then stained with IBA1 antibody (Wako) overnight followed by Alexa Fluor-488 conjugated second antibody. For quantification, 5 random images were taken from each chamber well using a confocal microscope (Zeiss). The total number of phagocytosed particles as well as cell-sized particles was counted and divided by microglia cell number.

Entries after “also recorded” stand apart in the source; their conditions may differ.

As for `CCCCCCCCCCCCCCCCCCCCCCCCCC(=O)O` [FFA C26:0, hexacosanoic acid], the “PS exposure on cell surface (Annexin V-FITC)” value in data set [1] is listed as “did not induce significant PS exposure”. In addition, the “MFGE8 mRNA expression” value in the data set on MFGE8 [2] is “did not have an effect”. Besides, the “cleaved-caspase staining (late apoptosis)” value in data set [3] was “did not reveal a notable positive signal”.

Regarding `CCCCCCCCCCCCCCCC(=O)OC[C@@H](O)COP(=O)([O-])OCC[N+](C)(C)C` [LPC C16:0, Lysophosphatidylcholine (LPC) C16:0], the “MFGE8 mRNA expression” value in the data set on MFGE8 [2] was “did not have an effect”.

For the molecule `CCCCCCCCCCCCCCCCCCCCCCCCCC(=O)OC[C@@H](O)COP(=O)([O-])OCC[N+](C)(C)C` [LPC C26:0, Lysophosphatidylcholine (LPC) C26:0], the “PS exposure on cell surface (Annexin V-FITC)” value in data set [1] was “remarkable dose dependent PS exposure; also recorded: showed exposure of phosphatidylserine (PS)”. Moreover, the “MFGE8 expression at protein level (secretion)” value in the data set on MFGE8 [4] is listed as “significant increases”. The “MFGE8 mRNA expression” value in the data set on MFGE8 [2] is recorded as “significantly increased”. In data set [5] (15 uM LPC C26:0, co-culture 4 days), the “decrease of Tuj 1 expression” value is 20%. For the same molecule, the “axon degeneration (quantification of degenerated axons)” value in data set [5] (co-culture system with LPC C26:0 supplementation, with or without MFGE8 antibody) is on record as “increased axon degeneration”. Besides, in the data set with MFGE8 [6], the “MFGE8 expression at mRNA level” value was “significant increases”. Also, the “cleaved-caspase staining (late apoptosis)” value in data set [3] was “did not reveal a notable positive signal; also recorded: little late apoptosis”. Moreover, the “neuronal marker Tuj 1 morphology” value in data set [3] (differentiated ReN neurons after LPC C26:0 treatment) is reported as “did not show significant morphological changes”.

B1: MFGE8: milk fat globule EGF factor 8 protein, supplemented to microglia at 50 ng/ml (protein, UniProt Q08431 24-387, looked up)
Lactadherin: LDICSKNPCHNGGLCEEISQEVRGDVFPSYTCTCLKGYAGNHCETKCVEPLGLENGNIANSQIAASSVRVTFLGLQHWVPELARLNRAGMVNAWTPSSNDDNPWIQVNLLRRMWVTGVVTQGASRLASHEYLKAFKVAYSLNGHEFDFIHDVNKKHKEFVGNWNKNAVHVNLFETPVEAQYVRLYPTSCHTACTLRFELLGCELNGCANPLGLKNNSIPDKQITASSSYKTWGLHLFSWNPSYARLDKQGNFNAWVAGSYGNDQWLQVDLGSSKEVTGIITQGARNFGSVQFVASYKVAYSNDSANWTEYQDPRTGSSKIFPGNWDNHSHKKNLFETPILARYVRILPVAWHNRIALRLELLGC
As for B1, the “microglial phagocytosis of PS exposing neurons” value in data set [7] is “significant increase; also recorded: dramatically increased”.
